# Laboratory results from patent US12295967B2, “Pharmaceutical composition for prevention or treatment of flavivirus infection” (priority 2018, dated 2025).
# Like-named read-outs stand apart in the source and are kept apart here. Starred links: 1 amine or outer side, 2 acyl side, 3 side chain; linkers in the order of their positions; H or OH if unused. Positions of bridges follow the written chain, without caps; N, C: chain ends. Non-standard residues stand in square brackets, D forms with d. Residues, ends and D or L forms follow the SMILES beside them. *: point of attachment. hTyr(3S-OH,4S-OH,3'-OSO3H) = N[C@H](C(=O)O)[C@H](O)[C@@H](O)c1ccc(O)c(OS(=O)(=O)O)c1; Orn(4R-OH,5R-OH) = O=C([C@H](C[C@@H](O)[C@@H](O)N[*:3])N[*:1])[*:2]; Pro(3S-OH,4S-Me) = C[C@H]1CN[C@H](C(=O)O)[C@H]1O; X1 = CCCCCOc1ccc(-c2cc(-c3ccc(C(=O)*)cc3)no2)cc1; Gln(3R-OH) = NC(=O)C[C@@H](O)[C@H](N)C(=O)O; Hyp = O=C(O)[C@@H]1C[C@@H](O)CN1
# Experiments:
# [1] = target: T1, dengue virus RdRp (Dengue virus type 2, UniProt P29990); assay: biochemical; conditions: dengue virus RdRp enzyme activity; read-out: IC50, inhibitory target enzyme RdRp
# T1 construct: dengue virus RdRp enzyme activity
# T1 sequence (P29990 2492-3391): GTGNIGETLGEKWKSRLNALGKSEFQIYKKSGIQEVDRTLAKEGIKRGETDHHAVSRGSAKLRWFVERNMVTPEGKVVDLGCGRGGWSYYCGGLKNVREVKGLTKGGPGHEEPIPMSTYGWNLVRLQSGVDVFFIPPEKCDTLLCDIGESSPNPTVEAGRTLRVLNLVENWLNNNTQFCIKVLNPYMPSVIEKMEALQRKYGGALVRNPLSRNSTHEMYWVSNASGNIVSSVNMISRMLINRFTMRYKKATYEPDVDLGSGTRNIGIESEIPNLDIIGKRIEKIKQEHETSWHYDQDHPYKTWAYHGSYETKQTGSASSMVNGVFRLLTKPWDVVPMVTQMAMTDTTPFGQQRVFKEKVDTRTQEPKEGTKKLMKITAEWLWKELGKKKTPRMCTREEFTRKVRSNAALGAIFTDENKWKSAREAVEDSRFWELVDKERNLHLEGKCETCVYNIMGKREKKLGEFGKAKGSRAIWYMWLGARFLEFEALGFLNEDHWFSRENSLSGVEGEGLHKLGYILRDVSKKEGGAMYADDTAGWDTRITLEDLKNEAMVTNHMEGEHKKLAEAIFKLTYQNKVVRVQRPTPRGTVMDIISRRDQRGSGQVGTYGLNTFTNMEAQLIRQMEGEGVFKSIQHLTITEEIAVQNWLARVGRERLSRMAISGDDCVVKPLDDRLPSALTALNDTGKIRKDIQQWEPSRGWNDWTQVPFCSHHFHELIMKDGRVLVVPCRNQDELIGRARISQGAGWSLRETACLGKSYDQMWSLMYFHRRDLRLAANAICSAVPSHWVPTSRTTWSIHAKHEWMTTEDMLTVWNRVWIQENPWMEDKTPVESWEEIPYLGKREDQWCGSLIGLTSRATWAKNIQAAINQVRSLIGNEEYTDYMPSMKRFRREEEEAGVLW
# [2] = target: T2, dengue virus helicase (Dengue virus type 2, UniProt P29990); assay: Inhibition of dengue virus helicase activity; assay type: biochemical
# T2 construct: dengue virus helicase activity
# T2 sequence (P29990 1476-2093): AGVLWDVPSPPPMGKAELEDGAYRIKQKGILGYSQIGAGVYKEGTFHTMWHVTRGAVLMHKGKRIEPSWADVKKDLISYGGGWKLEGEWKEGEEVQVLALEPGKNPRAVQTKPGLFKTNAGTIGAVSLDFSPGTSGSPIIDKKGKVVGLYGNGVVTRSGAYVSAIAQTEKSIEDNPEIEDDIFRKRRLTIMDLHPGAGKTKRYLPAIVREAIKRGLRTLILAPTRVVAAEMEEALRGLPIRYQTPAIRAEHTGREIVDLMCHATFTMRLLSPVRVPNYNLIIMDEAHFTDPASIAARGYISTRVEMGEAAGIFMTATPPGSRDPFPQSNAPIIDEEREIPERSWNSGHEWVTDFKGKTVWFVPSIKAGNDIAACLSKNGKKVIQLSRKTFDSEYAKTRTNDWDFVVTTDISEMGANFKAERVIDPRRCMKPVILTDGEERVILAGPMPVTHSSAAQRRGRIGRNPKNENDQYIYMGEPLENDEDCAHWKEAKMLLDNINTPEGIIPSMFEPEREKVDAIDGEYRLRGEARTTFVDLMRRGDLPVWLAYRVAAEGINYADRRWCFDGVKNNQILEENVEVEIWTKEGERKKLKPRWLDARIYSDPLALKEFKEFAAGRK
# Text: A degree of inhibition of dengue virus helicase activity depending on the concentrations of 6 compounds was confirmed (IC50 values presented, FIG. 4).
# [3] = test system: DENV; assay: DENV viremia reduction in mouse blood, dengue infection model (AG129 mouse); assay type: in vivo; conditions: micafungin sodium IP, miltefosine oral, FIG. 5
# Method: On day 3, blood was collected from each mouse and transferred to an EDTA coated anticoagulant tube. After shaking for 10 minutes and gently mixing, 20 μl of each sample was analyzed by whole blood count using HEMAVET 950FS (Drew Scientific). The measured value of each factor was semi-quantified relative to that of the uninfected control. Plasma was isolated by centrifugation at 8000 g and 4° C. for 15 minutes in order to analyze cytokine hyperemia and expression changes. Plasma virus titer (viremia) and viral RNA expression in whole blood were analyzed by quantitative real-time PCR (qRT-PCR).
# For target gene amplification, each primer was designed taking into account overlap between two exons of the target gene having a GC content of less than 50% and an expected amplicon size of about 100 bps. For quantification of viral RNA, quantitative real time PCR (qRT-PCR) was performed. Each reaction was performed in 20 μL volume using SYBR green master mix. Quantstudio 3™ (Applied Biosystems Inc., USA) was used for the present study in two-stage amplification process. […]
# Virus in plasma was calculated according to an equation of standard curve. […] For cell-based group and mouse organ samples (including whole blood), semi-quantitative viral RNA was analyzed for GAPDH as an endogenous control. […]
# [4] = dengue virus helicase activity, read-out: IC50, inhibitory target enzyme Helicase
Compound,IC50 [1],further results
NCC[C@H](O)C(=O)N[C@@H]1C[C@H](N)[C@@H](O[C@H]2O[C@H](CN)[C@@H](O)[C@H](O)[C@H]2O)[C@H](O)[C@H]1O[C@H]1O[C@H](CO)[C@@H](O)[C@H](N)[C@H]1O [Amikacin],24.3 µM,–
CC(=O)OCC1=C(C(=O)O)N2C(=O)[C@@H](NC(=O)Cc3cccs3)[C@H]2SC1 [Cephalothin],–,IC50 [2]: 26 µM
CN[C@@H]1[C@H](O[C@H]2[C@H](O[C@H]3[C@H](O)[C@@H](O)[C@H](NC(=N)N)[C@@H](O)[C@@H]3NC(=N)N)O[C@@H](C)[C@]2(O)CO)O[C@@H](CO)[C@H](O)[C@H]1O [Dihydrostreptomycin],18.4 µM,–
O=C1Nc2ccc(Cl)cc2[C@@](C#CC2CC2)(C(F)(F)F)O1 [Efavirenz],–,IC50 [2]: 38.5 µM
CCN(CCO)CCCC(C)Nc1ccnc2cc(Cl)ccc12 (stereo not shown) [Hydroxychloroquine],96 µM,–
"CCCCCOc1ccc(-c2cc(-c3ccc(C(=O)N[C@H]4C[C@@H](O)[C@@H](O)NC(=O)[C@@H]5[C@@H](O)[C@@H](C)CN5C(=O)[C@H]([C@H](O)CC(N)=O)NC(=O)[C@H]([C@H](O)[C@@H](O)c5ccc(O)c(OS(=O)(=O)O)c5)NC(=O)[C@@H]5C[C@@H](O)CN5C(=O)[C@H]([C@@H](C)O)NC4=O)cc3)no2)cc1 [Micafungin] (X1-[Orn(4R-OH,5R-OH)]T[Hyp][hTyr(3S-OH,4S-OH,3'-OSO3H)][Gln(3R-OH)][Pro(3S-OH,4S-Me)]; lactam 1-C)",–,dengue viremia [3]: significantly reduced; IC50 [2]: 5 µM
CCCCCCCCCCCCCCCCOP(=O)([O-])OCC[N+](C)(C)C [Miltefosine],–,"dengue viremia [3]: significantly reduced; IC50 [2, 4]: 17.5 µM"
[NH2][Pt]1([NH2])[O]CC(=O)[O]1 [Nedaplatin],86.4 µM,–
CCN[C@@H]1C[C@H](N)[C@@H](O[C@H]2OC(CN)=CC[C@H]2N)[C@H](O)[C@H]1O[C@H]1OC[C@](C)(O)[C@H](NC)[C@H]1O [Netimicin],2.9 µM,–
C[C@@H]1[C@H](O)[C@@H](C)/C=C/C=C/CC/C=C/C=C/C=C/C=C/C(O[C@H]2O[C@H](C)[C@@H](O)[C@H](N)[C@@H]2O)CC2O[C@](O)(CC(O)C(O)CCC(O)CC(O)CC(O)CC(=O)O[C@H]1C)CC(O)C2C(=O)O (stereo partly shown) [Nystatin],–,"IC50 [2, 4]: 13.1 µM"
NC[C@@H]1O[C@H](O[C@H]2[C@@H](O)[C@H](O[C@@H]3[C@@H](O)[C@H](N)C[C@H](N)[C@H]3O[C@H]3O[C@H](CO)[C@@H](O)[C@H](O)[C@H]3N)O[C@@H]2CO)[C@H](N)[C@@H](O)[C@@H]1O [Paromomycin],4.5 µM,–
CN(C)Cc1ccc(S(=O)(=O)n2ccc(/C=C/C(=O)NO)c2)cc1 [Resminostat],64.5 µM,–
NC[C@H]1O[C@H](O[C@H]2[C@H](O)[C@@H](O[C@H]3O[C@H](CO)[C@@H](O)[C@H](N)[C@H]3O)[C@H](N)C[C@@H]2N)[C@H](N)C[C@@H]1O [Tobramycin],3 µM,–
CN1CCN(CCCN2c3ccccc3Sc3ccc(C(F)(F)F)cc32)CC1 [Trifluoperazine],22.1 µM,–
Bleomycin,–,"IC50 [2, 4]: 1.4 µM"
Capreomycin,5.7 µM,–
Gentamicin Sulfate,2.3 µM,–
